Like-named read-outs stand apart in the source and are kept apart here.
Biological target: b-Raf (V600E) (Homo sapiens (Human), UniProt P15056, V600E)
Conditions: read-out: b-Raf IC-50
[1] = Table 2, AlphaScreen, 3 hours reaction
[2] = AlphaScreen, 60 min pre-incubation, 3 hours reaction
[3] = AlphaScreen, 60 min pre-incubation, reaction 3 hours at room temperature

Sequence of b-Raf (V600E) (P15056 whole entry V600E): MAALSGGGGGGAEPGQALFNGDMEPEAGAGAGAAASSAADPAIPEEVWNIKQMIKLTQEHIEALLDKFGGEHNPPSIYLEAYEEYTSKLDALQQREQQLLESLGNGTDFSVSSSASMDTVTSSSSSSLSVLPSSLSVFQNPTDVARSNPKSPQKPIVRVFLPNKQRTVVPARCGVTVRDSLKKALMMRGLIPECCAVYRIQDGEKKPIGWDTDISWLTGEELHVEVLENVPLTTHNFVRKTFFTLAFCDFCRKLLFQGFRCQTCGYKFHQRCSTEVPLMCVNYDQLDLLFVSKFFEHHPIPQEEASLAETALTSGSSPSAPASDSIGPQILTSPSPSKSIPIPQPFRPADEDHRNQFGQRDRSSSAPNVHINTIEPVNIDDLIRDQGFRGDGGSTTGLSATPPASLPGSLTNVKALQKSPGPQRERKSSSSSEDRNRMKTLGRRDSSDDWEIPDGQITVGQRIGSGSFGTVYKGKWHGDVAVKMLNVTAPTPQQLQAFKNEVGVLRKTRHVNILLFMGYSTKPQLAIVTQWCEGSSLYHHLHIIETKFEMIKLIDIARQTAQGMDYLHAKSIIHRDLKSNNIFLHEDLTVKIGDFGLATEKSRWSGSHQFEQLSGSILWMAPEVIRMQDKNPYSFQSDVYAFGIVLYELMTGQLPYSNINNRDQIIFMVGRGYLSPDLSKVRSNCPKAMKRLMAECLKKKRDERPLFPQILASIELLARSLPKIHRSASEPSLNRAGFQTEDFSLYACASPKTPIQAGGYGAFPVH

| IC50 [1] | IC50 [3] | Compound | also measured |
| --- | --- | --- | --- |
| 2.9 nM | – | CCOc1ncc(-c2cc(NC(=O)c3ccnc(C(C)(C)C#N)c3)ccc2C)cc1N1CCOCC1 [Example 161, 2-(2-cyanopropan-2-yl)-N-(3-(6-ethoxy-5-morpholinopyridin-3-yl)-4-methylphenyl)isonicotinamide] | – |
| 6 nM | – | Cc1ncc(NC(=O)c2ccnc(C(C)(C)F)c2)cc1-c1cnc(Cl)c(N2CCOCC2)c1 [Example 290, N-(6′-chloro-2-methyl-5′-morpholino-[3,3-bipyridin]-5-yl)-2-(2-fluoropropan-2-yl)isonicotinamide] | – |
| 8.6 nM | – | COc1ncc(-c2cc(NC(=O)c3ccnc(C(C)(C)C#N)c3)cnc2Cl)cc1N1CCOCC1 [Example 264, N-(2-chloro-6′-methoxy-5′-morpholino-[3,3′-bipyridin]-5-yl)-2-(2-cyanopropan-2-yl)isonicotinamide] | – |
| – | 35.2 nM | Cc1ncc(NC(=O)c2ccnc(C(C)(C)C#N)c2)cc1-c1cc(N2CCOCC2)nc(N2CC(O)C2)c1 [Example 1083, 2-(2-cyanopropan-2-yl)-N-(2′-(3-hydroxyazetidin-1-yl)-2-methyl-6′-morpholino-[3,4′-bipyridin]-5-yl)isonicotinamide] | – |
| – | 8.13 nM | Cc1ncc(NC(=O)c2ccnc(C(C)(C)O)c2)cc1-c1cnc(OC2CC3(COC3)C2)c(N2CCOCC2)c1 [Example 964, N-(6′-(2-oxaspiro[3.3]heptan-6-yloxy)-2-methyl-5′-morpholino-[3,3′-bipyridin]-5-yl)-2-(2-hydroxypropan-2-yl)isonicotinamide] | – |
| – | 3.18 nM | CCOc1cc(-c2cc(NC(=O)c3ccnc(C(C)(C)F)c3)cnc2C)cc(N2CCOCC2)n1 [Example 1142, N-(2′-ethoxy-2-methyl-6′-morpholino-[3,4′-bipyridin]-5-yl)-2-(2-fluoropropan-2-yl)isonicotinamide] | – |
| – | 8.59 nM | Cc1ncc(NC(=O)c2ccnc(C(C)(C)F)c2)cc1-c1cc(N2CCOCC2)nc(N2CC(C)(O)C2)c1 [Example 1106, 2-(2-fluoropropan-2-yl)-N-(2′-(3-hydroxy-3-methylazetidin-1-yl)-2-methyl-6′-morpholino-[3,4′-bipyridin]-5-yl)isonicotinamide] | – |
| – | 7.5 nM | Cc1ncc(NC(=O)c2ccnc(C(C)(C)O)c2)cc1-c1cc(N2CCOCC2)c2nccn2n1 [Example 870, 2-(2-hydroxypropan-2-yl)-N-(6-methyl-5-(8-morpholinoimidazo[1,2-b]pyridazin-6-yl)pyridin-3-yl)isonicotinamide] | – |

The remaining lines, values behind:

| Compound | IC50 [1] | IC50 [3] | also measured |
| --- | --- | --- | --- |
| Cc1ccc(NC(=O)c2ccnc(C(C)(C)O)c2)cc1-c1cc(N2CCOCC2)c(=O)n(C)c1 [Example 350, 2-(2-hydroxypropan-2-yl)-N-(4-methyl-3-(1-methyl-5-morpholino-6-oxo-1,6-dihydropyridin-3-yl)phenyl)isonicotinamide] | 3.5 nM | – | – |
| CCOc1nnc(-c2cc(NC(=O)c3ccnc(C(C)C)c3)cnc2C)cc1N1CCOCC1 [Example 621, N-(5-(6-ethoxy-5-morpholinopyridazin-3-yl)-6-methylpyridin-3-yl)-2-isopropylisonicotinamide] | – | – | IC50 [2]: 2.6 nM |
| Cc1ncc(NC(=O)c2cnnc(C(F)(F)F)c2)cc1-c1cnc(N(C)C)c(N2CCOCC2)c1 [Example 270, N-(6′-(dimethylamino)-2-methyl-5′-morpholino-[3,3′-bipyridin]-5-yl)-6-(trifluoromethyl)pyridazine-4-carboxamide] | 0.5 nM | – | – |
| Cc1ncc(NC(=O)c2cc(C(C)(C)C#N)ccn2)cc1-c1cnc(OC2CC3(COC3)C2)c(N2CCOCC2)c1 [Example 970, N-(6′-(2-oxaspiro[3.3]heptan-6-yloxy)-2-methyl-5′-morpholino-[3,3′-bipyridin]-5-yl)-4-(2-cyanopropan-2-yl)picolinamide] | – | 8.79 nM | – |
| Cc1ccc(NC(=O)c2ccnc(C3(C#N)CC3)c2)cc1-c1cc(N2CCOCC2)nc(N2CC(C)(O)C2)c1 [Example 1111, 2-(1-cyanocyclopropyl)-N-(3-(2-(3-hydroxy-3-methylazetidin-1-yl)-6-morpholinopyridin-4-yl)-4-methylphenyl)isonicotinamide] | – | 2.09 nM | – |
| CCNc1nc(-c2cc(NC(=O)c3ccnc(C(C)(C)C#N)c3)ccc2C)cc(N2CCOCC2)n1 [Example 717, 2-(2-cyanopropan-2-yl)-N-(3-(2-(ethylamino)-6-morpholinopyrimidin-4-yl)-4-methylphenyl)isonicotinamide] | – | – | IC50 [2]: 2.9 nM |
| Cc1cn(-c2cc(NC(=O)c3ccc(C)c(-c4cc(N5CCOCC5)c(=O)n(C)c4)c3)cc(C(F)(F)F)c2)cn1 [Example 428, 4-methyl-N-(3-(4-methyl-1H-imidazol-1-yl)-5-(trifluoromethyl)phenyl)-3-(1-methyl-5-morpholino-6-oxo-1,6-dihydropyridin-3-yl)benzamide] | 10.1 nM | – | – |
| Cc1ccc(NC(=O)c2cccc(C(F)F)c2)cc1-c1cc(N2CCOCC2)c(=O)n(CCC#N)c1 [Example 336, N-(3-(1-(2-cyanoethyl)-5-morpholino-6-oxo-1,6-dihydropyridin-3-yl)-4-methylphenyl)-3-(difluoromethyl)benzamide] | 5.5 nM | – | – |
| Cc1ccc(NC(=O)c2ccnc(C(F)(F)F)c2)cc1-c1cc(N2CCOCC2)nc(OC2CNC2)n1 [Example 780, N-(3-(2-(azetidin-3-yloxy)-6-morpholinopyrimidin-4-yl)-4-methylphenyl)-2-(trifluoromethyl)isonicotinamide] | – | – | IC50 [2]: 2.1 nM |
| CCNc1nc(-c2cc(NC(=O)c3ccnc(C(C)(C)C#N)c3)cnc2C)cc(N2CCOCC2)n1 [Example 718, 2-(2-cyanopropan-2-yl)-N-(5-(2-(ethylamino)-6-morpholinopyrimidin-4-yl)-6-methylpyridin-3-yl)isonicotinamide] | – | – | IC50 [2]: 8.4 nM |
| Cc1ccc(NC(=O)c2cccc(C(F)(F)F)c2)cc1-c1cc(N2CCOCC2)nc(OCCO)n1 [Example 40, N-(3-(2-(2-hydroxyethoxy)-6-morpholinopyrimidin-4-yl)-4-methylphenyl)-3-(trifluoromethyl)benzamide] | 0.8 nM | – | – |
| Cc1ccc(NC(=O)c2ccnc(C(F)(F)F)c2)cc1-c1cc(N2CCOCC2)nc(NCCO)c1F [Example 1006, N-(3-(3-fluoro-2-((2-hydroxyethyl)amino)-6-morpholinopyridin-4-yl)-4-methylphenyl)-2-(trifluoromethyl)isonicotinamide] | – | 3.97 nM | – |
| CCOc1nnc(-c2cc(NC(=O)c3cccc(C(F)(F)F)c3)cnc2C)cc1N1CCOCC1 [Example 609, N-(5-(6-ethoxy-5-morpholinopyridazin-3-yl)-6-methylpyridin-3-yl)-3-(trifluoromethyl)benzamide] | – | – | IC50 [2]: 0.9 nM |
| Cc1ncc(NC(=O)c2cc(C(F)(F)F)ccn2)cc1-c1cc(N2CCOCC2)c2nccn2n1 [Example 868, N-(6-methyl-5-(8-morpholinoimidazo[1,2-b]pyridazin-6-yl)pyridin-3-yl)-4-(trifluoromethyl)picolinamide] | – | 1.3 nM | – |
| Cc1ccc(NC(=O)c2cccc(C(F)(F)F)c2)cc1-c1cc(N2CCOCC2)nc(N2CCOCC2)n1 [Example 10, N-(3-(2,6-dimorpholinopyrimidin-4-yl)-4-methylphenyl)-3-(trifluoromethyl)benzamide] | – | – | IC50: 0.3 nM |
| Cc1ccc(NC(=O)c2cccc(S(C)(=O)=O)c2)cc1-c1cc(N2CCOCC2)nc(N2CC(O)C2)c1 [Example 1096, N-(3-(2-(3-hydroxyazetidin-1-yl)-6-morpholinopyridin-4-yl)-4-methylphenyl)-3-(methylsulfonyl)benzamide] | – | 2 nM | – |
